The values that follow come from patent publication US20240391965A1, “STAPLED ANTIMICROBIAL PEPTIDES (STAMPS) AND USES THEREOF” (Lytica Therapeutics, Inc., priority 2021, published 2024).

The nature of data set [1]: 90 minute cytotoxicity assay (LDH release), renal toxicity. It is filed as cell-based. The text has this: In some embodiments, a peptide provided herein has renal toxicity that is at least 10% (e.g., at least 15%, at least 20%, at least 25%, at least 30%, at least 35%, at least 40%, at least 45%, at least 50%, at least 55%, at least 60%, at least 65%, at least 65%, at least 70%, at least 75%, at least 80%, at least 85%, at least 90%, at least 95%, at least 99%) lower than the renal toxicity of the reference. The renal toxicity of a peptide can be measured in vitro using a renal proximal tubule epithelial cell (RPTEC) renal toxicity assay.
(§1) Cell culture: RPTEC were maintained in MEM media supplemented with growth factors. HEPG2 cell line was maintained in Eagle's Minimum Essential Medium (EMEM) supplemented with fetal bovine serum to a final concentration of 10%.
90 minute cytotoxicity assay: Cells were plated in a 96-well format, and after overnight incubation, media was replaced with fresh media. Serial dilutions of StAMPs from a 5 mg/mL water stock, or vehicle, were added to the cells in a final volume of 100 μl. After incubating at 37° C. for 90 min, 50 μl of cell culture media was transferred to a clear 96-well plate, incubated with 50 μl of lactate dehydrogenase (LDH) assay reagent for 10 min, and absorbance measured at 490 nm on a microplate reader.
(§2) Renal toxicity was measured after 90 minutes of incubation, while liver toxicity was measured after 48 hours of incubation with StAMPs. N/A=not tested.

The nature of data set [2]: 48 hours cytotoxicity assay (CellTiter-Glo), liver toxicity. It is filed as cell-based, human.
Source text: In some embodiments, a peptide provided herein has hepatic toxicity that is at least 10% (e.g., at least 15%, at least 20%, at least 25%, at least 30%, at least 35%, at least 40%, at least 45%, at least 50%, at least 55%, at least 60%, at least 65%, at least 65%, at least 70%, at least 75%, at least 80%, at least 85%, at least 90%, at least 95%, at least 99%) lower than the hepatic toxicity of the reference. The hepatic toxicity of a peptide can be measured in vitro using a human liver cells (e.g., HepG2) toxicity assay.
as §1
48 hours cytotoxicity assay: Cells were plated in a 96-well format, and after 4 hour incubation to allow attachment, serial dilutions of StAMPs from a 5 mg/mL water stock, or vehicle, were then added to the cells in a final volume of 100 μl. After incubating at 37° C. for 48 hours, 100 μl of CellTiter-Glo® reagent was added to the cells, and the plates were incubated 10 minutes at room temperature. Luminescence was then measured on a microplate reader.
as §2

Converted amounts (≈) assume the structure as drawn. Starred links: 1 amine or outer side, 2 acyl side, 3 side chain; linkers in the order of their positions; H or OH if unused. Positions of bridges follow the written chain, without caps; N, C: chain ends. Residues, ends and D or L forms follow the SMILES beside them. mXylylene = c1cc(C[*:1])cc(C[*:2])c1; pXylylene = c1cc(C[*:2])ccc1C[*:1]; X1 = C(=CC[*:2])C[*:1]

With `CC[C@H](C)[C@H](NC(=O)CN)C(=O)N[C@@H](Cc1ccccc1)C(=O)N[C@@H](CO)C(=O)N[C@@H](CCCCN)C(=O)N[C@@H](CC(C)C)C(=O)N[C@H]1CSCc2cccc(c2)CSC[C@@H](C(=O)N[C@@H](CCCCN)C(=O)N[C@@H](CC(N)=O)C(=O)N[C@@H](CC(C)C)C(=O)N[C@@H](CC(C)C)C(=O)N[C@H](C(=O)N[C@@H](CO)C(=O)NCC(=O)N[C@@H](CC(C)C)C(=O)N[C@@H](CCCCN)C(=O)NCC(=O)N[C@@H](C)C(=O)NCC(=O)O)[C@@H](C)CC)NC(=O)[C@H](CCCCN)NC(=O)[C@H](CCCCN)NC(=O)CNC1=O` [compound 95] (H-GIFSKLCGKKCKNLLISGLKGAG-OH; linker 7-11 via mXylylene; N-terminus assumed), the results for the IC50 in data set [1] and in data set [2] were 167 µg/mL (≈ 68.5 µM) and greater than 200 µg/mL, respectively.

As to `CC[C@H](C)[C@H](NC(=O)CN)C(=O)N[C@H]1CSCc2cccc(c2)CSC[C@@H](C(=O)NCC(=O)N[C@@H](CCCCN)C(=O)N[C@@H](CCCCN)C(=O)N[C@H](C(=O)N[C@@H](CCCCN)C(=O)N[C@@H](CC(N)=O)C(=O)N[C@@H](CC(C)C)C(=O)N[C@@H](CC(C)C)C(=O)N[C@H](C(=O)N[C@@H](CO)C(=O)NCC(=O)N[C@@H](CC(C)C)C(=O)N[C@@H](CCCCN)C(=O)NCC(N)=O)[C@@H](C)CC)[C@@H](C)CC)NC(=O)[C@H](CC(C)C)NC(=O)[C@H](CCCCN)NC(=O)[C@H](CO)NC1=O` [compound 39] (H-GICSKLCGKKIKNLLISGLKG-NH2; linker 3-7 via mXylylene), the IC50 in data set [1] stood at 113 µg/mL (≈ 49.7 µM); in data set [2] it was 103 µg/mL (≈ 45.3 µM).

In the case of `CC[C@H](C)[C@H](NC(=O)CN)C(=O)N[C@H]1CSCc2ccc(cc2)CSC[C@@H](C(=O)NCC(=O)N[C@@H](CCCCN)C(=O)N[C@@H](CCCCN)C(=O)N[C@H](C(=O)N[C@@H](CCCCN)C(=O)N[C@@H](CC(N)=O)C(=O)N[C@@H](CC(C)C)C(=O)N[C@@H](CC(C)C)C(=O)N[C@H](C(=O)N[C@@H](CO)C(=O)NCC(=O)N[C@@H](CC(C)C)C(=O)N[C@@H](CCCCN)C(=O)NCC(N)=O)[C@@H](C)CC)[C@@H](C)CC)NC(=O)[C@H](CC(C)C)NC(=O)[C@H](CCCCN)NC(=O)[C@H](CO)NC1=O` [compound 40] (H-GICSKLCGKKIKNLLISGLKG-NH2; linker 3-7 via pXylylene; N-terminus assumed), the concentration for half-maximal inhibition (IC50) in data set [1] stood at 117 µg/mL (≈ 51.4 µM); in data set [2] it was 124 µg/mL (≈ 54.5 µM).

Turning to `CC[C@H](C)[C@H](NC(=O)CN)C(=O)N[C@@H](Cc1ccccc1)C(=O)N[C@@H](CO)C(=O)N[C@@H](CCCCN)C(=O)N[C@H]1CSCc2cccc(c2)CSC[C@@H](C(=O)N[C@H](C(=O)N[C@@H](CCCCN)C(=O)N[C@@H](CC(N)=O)C(=O)N[C@@H](CC(C)C)C(=O)N[C@@H](CC(C)C)C(=O)N[C@H](C(=O)N[C@@H](CO)C(=O)NCC(=O)N[C@@H](CC(C)C)C(=O)N[C@@H](CCCCN)C(=O)NCC(N)=O)[C@@H](C)CC)[C@@H](C)CC)NC(=O)[C@H](CCCCN)NC(=O)CNC(=O)[C@H](C)NC1=O` [compound 41] (H-GIFSKCAGKCIKNLLISGLKG-NH2; linker 6-10 via mXylylene; N-terminus assumed), the figures for the IC50 in data set [1] and in data set [2] were 58 µg/mL (≈ 25.8 µM) and 21 µg/mL (≈ 9.33 µM), respectively.

On to `CC[C@H](C)[C@H](NC(=O)CN)C(=O)N[C@@H](Cc1ccccc1)C(=O)N[C@@H](CO)C(=O)N[C@@H](CCCCN)C(=O)N[C@@H](CC(C)C)C(=O)N[C@@H](C)C(=O)NCC(=O)N[C@@H](CCCCN)C(=O)N[C@@H](CCCCN)C(=O)N[C@H](C(=O)N[C@@H](CCCCN)C(=O)N[C@@H](CC(N)=O)C(=O)N[C@@H](CC(C)C)C(=O)N[C@@H](CC(C)C)C(=O)N[C@H](C(=O)N[C@H]1CSCc2cccc(c2)CSC[C@@H](C(N)=O)NC(=O)[C@H](CCCCN)NC(=O)[C@H](CC(C)C)NC(=O)CNC1=O)[C@@H](C)CC)[C@@H](C)CC` [compound 44] (H-GIFSKLAGKKIKNLLICGLKC-NH2; linker 17-21 via mXylylene; N-terminus assumed), for which the results for the IC50 in data set [1] and in data set [2] were 86 µg/mL (≈ 36.6 µM) and 48 µg/mL (≈ 20.4 µM), respectively.

On to `CC[C@H](C)[C@H](NC(=O)CN)C(=O)N[C@@H](Cc1ccccc1)C(=O)N[C@@H](CO)C(=O)N[C@@H](CCCCN)C(=O)N[C@H]1CSCC=CCSC[C@@H](C(=O)N[C@H](C(=O)N[C@@H](CCCCN)C(=O)N[C@@H](CC(N)=O)C(=O)N[C@@H](CC(C)C)C(=O)N[C@@H](CC(C)C)C(=O)N[C@H](C(=O)N[C@@H](CO)C(=O)NCC(=O)N[C@@H](CC(C)C)C(=O)N[C@@H](CCCCN)C(=O)NCC(N)=O)[C@@H](C)CC)[C@@H](C)CC)NC(=O)[C@H](CCCCN)NC(=O)CNC(=O)[C@H](C)NC1=O` [compound 9] (H-GIFSKCAGKCIKNLLISGLKG-NH2; linker 6-10 via X1; N-terminus assumed), for which the IC50 in data set [1] was greater than 200 µg/mL; in data set [2], 39 µg/mL (≈ 17.7 µM).

In the case of `CC[C@H](C)[C@H](NC(=O)[C@H](CC(C)C)NC(=O)[C@H](CC(C)C)NC(=O)[C@H](CC(N)=O)NC(=O)[C@H](CCCCN)NC(=O)[C@@H](NC(=O)[C@H](CCCCN)NC(=O)[C@H](CCCCN)NC(=O)CNC(=O)[C@H](C)NC(=O)[C@H](CC(C)C)NC(=O)[C@@H]1CSCc2cccc(c2)CSC[C@H](N)C(=O)N[C@@H]([C@@H](C)CC)C(=O)N[C@@H](Cc2ccccc2)C(=O)N[C@@H](CO)C(=O)N1)[C@@H](C)CC)C(=O)N[C@@H](CO)C(=O)NCC(=O)N[C@@H](CC(C)C)C(=O)N[C@@H](CCCCN)C(=O)NCC(N)=O` [compound 36] (H-CIFSCLAGKKIKNLLISGLKG-NH2; linker 1-5 via mXylylene; N-terminus assumed), the figures for the IC50 in data set [1] and in data set [2] were roughly 200 µg/mL (≈ 86.7 µM) and 75 µg/mL (≈ 32.5 µM), respectively.

`CC[C@H](C)[C@H](NC(=O)[C@H](CC(C)C)NC(=O)[C@H](CC(C)C)NC(=O)[C@H](CC(N)=O)NC(=O)[C@H](CCCCN)NC(=O)[C@@H](NC(=O)[C@H](CCCCN)NC(=O)[C@H](CCCCN)NC(=O)CNC(=O)[C@H](C)NC(=O)[C@H](CC(C)C)NC(=O)[C@@H]1CSCc2ccc(cc2)CSC[C@H](N)C(=O)N[C@@H]([C@@H](C)CC)C(=O)N[C@@H](Cc2ccccc2)C(=O)N[C@@H](CO)C(=O)N1)[C@@H](C)CC)C(=O)N[C@@H](CO)C(=O)NCC(=O)N[C@@H](CC(C)C)C(=O)N[C@@H](CCCCN)C(=O)NCC(N)=O` [compound 37] (H-CIFSCLAGKKIKNLLISGLKG-NH2; linker 1-5 via pXylylene; N-terminus assumed): the IC50 in data set [1] is 140 µg/mL (≈ 60.7 µM); in data set [2], 33 µg/mL (≈ 14.3 µM).

Turning to `CC[C@H](C)[C@H](NC(=O)CN)C(=O)N[C@@H](Cc1ccccc1)C(=O)N[C@@H](CO)C(=O)N[C@@H](CCCCN)C(=O)N[C@@H](CC(C)C)C(=O)N[C@@H](C)C(=O)NCC(=O)N[C@@H](CCCCN)C(=O)N[C@@H](CCCCN)C(=O)N[C@H](C(=O)N[C@@H](CCCCN)C(=O)N[C@@H](CC(N)=O)C(=O)N[C@@H](CC(C)C)C(=O)N[C@@H](CC(C)C)C(=O)N[C@H](C(=O)N[C@H]1CSCC=CCSC[C@@H](C(N)=O)NC(=O)[C@H](CCCCN)NC(=O)[C@H](CC(C)C)NC(=O)CNC1=O)[C@@H](C)CC)[C@@H](C)CC` [compound 35] (H-GIFSKLAGKKIKNLLICGLKC-NH2; linker 17-21 via X1; N-terminus assumed), the IC50 in data set [1] and in data set [2] was roughly 200 µg/mL (≈ 87 µM) each time.

In the case of `CC[C@H](C)[C@H](NC(=O)CN)C(=O)N[C@@H](Cc1ccccc1)C(=O)N[C@@H](CO)C(=O)N[C@@H](CCCCN)C(=O)N[C@@H](CC(C)C)C(=O)N[C@H]1CSCc2cccc(c2)CSC[C@@H](C(=O)N[C@@H](CCCCN)C(=O)N[C@@H](CC(N)=O)C(=O)N[C@@H](CC(C)C)C(=O)N[C@@H](CC(C)C)C(=O)N[C@H](C(=O)N[C@@H](CO)C(=O)NCC(=O)N[C@@H](CC(C)C)C(=O)N[C@@H](CCCCN)C(=O)NCC(=O)O)[C@@H](C)CC)NC(=O)[C@H](CCCCN)NC(=O)[C@H](CCCCN)NC(=O)[C@H](C)NC1=O` [compound 97] (H-GIFSKLCAKKCKNLLISGLKG-OH; linker 7-11 via mXylylene; N-terminus assumed), the IC50 in data set [1] and in data set [2] was greater than 200 µg/mL throughout.

For the molecule `CC[C@H](C)[C@H](NC(=O)CN)C(=O)N[C@@H](Cc1ccccc1)C(=O)N[C@@H](CO)C(=O)N[C@@H](CCCCN)C(=O)N[C@@H](CC(C)C)C(=O)N[C@H]1CSCC=CCSC[C@@H](C(=O)N[C@@H](CCCCN)C(=O)N[C@@H](CC(N)=O)C(=O)N[C@@H](CC(C)C)C(=O)N[C@@H](CC(C)C)C(=O)N[C@H](C(=O)N[C@@H](CO)C(=O)NCC(=O)N[C@@H](CC(C)C)C(=O)N[C@@H](CCCCN)C(=O)NCC(N)=O)[C@@H](C)CC)NC(=O)[C@H](CCCCN)NC(=O)[C@H](CCCCN)NC(=O)CNC1=O` [compound 4] (H-GIFSKLCGKKCKNLLISGLKG-NH2; linker 7-11 via X1; N-terminus assumed), the results for the IC50 in data set [1] and in data set [2] were roughly 200 µg/mL (≈ 88.5 µM) and 98 µg/mL (≈ 43.4 µM), respectively.

The IC50 is the point on the concentration scale where inhibition reaches its midpoint. The low end stands for higher potency, the high end for lower potency.
